# Assay results published in US20250195603A1, “COMPOSITION FOR PREVENTING OR TREATING DENTAL CARIES” (HYSENSBIO CO., LTD., priority 2022, published 2025).
# Assays:
# Type in all cases: cell-based
# [1] = system: human dental pulp cells; test: Expression of inflammatory factors (RT-PCR) in LPS-treated human dental pulp cells; conditions: 10 μg/mL LPS only
# Description: To confirm the preventive and therapeutic effects of a pharmaceutical composition (KH002) in stage 4 dental caries in which inflammation occurred after cells are affected by dental caries, human dental pulp cells were treated with lipopolysaccharide (LPS) and the pharmaceutical composition (KH002), and the expression of inflammatory factors was compared.
# (§1) All experiments using human pulp cells were approved by the Institutional Review Board (IRB; S-D20140007) of the Seoul National University Dental Hospital and conducted in accordance with the guidelines and regulations of the institution. The third molars (wisdom teeth) were extracted from patients who signed the consent forms at the Seoul National University Dental Hospital, and pulp cells were isolated using a previously reported method (Choung et al., 2016). The teeth were cut open, the internal pulp was separated using forceps, and the pulp tissue was finely minced into 60-mm diameter cell culture dishes. […]
# A reverse transcription polymerase chain reaction (RT-PCR) was performed to compare the expression of inflammatory factors, and the ratio of the expression level of each factor to the expression level of glyceraldehyde 3-phosphate dehydrogenase (GAPDH) was confirmed for quantitative comparison (FIG. 3).
# [2] = system: human dental pulp cells; test: Viability of human dental pulp cells in inflammatory environment (MTT); conditions: 10 μg/mL LPS alone, vs negative control
# Description: To measure the cell viability, human dental pulp cells were inoculated in a 96-well plate at 5×10^3 cells/well and treated with 150 μL of a 3-(4,5-dimethyl-2-thiazolyl)-2,5-diphenyl-tetrazolium bromide (MTT, Medifab Co. Ltd.) solution for about two hours on days 1, 3, and 5, and the absorbance of the solution dissolved in DMSO was measured at 570 nm.
# as §1, with “dishes. The finely minced pulp tissue was then covered with a cover glass and cultured in a cell culture medium to isolate human pulp cells.” for “dishes.”
# [3] = system: human pulp cells; test: Wound-healing model of human pulp cells (scratch); conditions: LPS only, 24 hours after scratch
# Description: Human pulp cells were inoculated in a 6-well plate at 1×10^5 cells/well, and the next day, the central portion was scratched with the tip of a 200 μL pipette, and the rate of cell growth was compared 24 hours later.
# as §1, with “dishes. The finely minced pulp tissue was then covered with a cover glass and cultured in a cell culture medium to isolate human pulp cells.” for “dishes.”
# Cell photographs were taken using an optical microscope using a 10× objective lens, and the photographs were analyzed using the ImageJ software program.
# [4] = system: human dental pulp cells; test: Mineralization ability of human dental pulp cells (alizarin red S); conditions: LPS alone
# Description: To this end, human dental pulp cells were inoculated in each 6-well dish at 1×10^5 cells/well and then cultured in a differentiation medium containing ascorbic acid (50 μg/mL) and beta-glycerophosphate (10 mM) for 7, 14, and 21 days from the next day.
# as §1, with “dishes. The finely minced pulp tissue was then covered with a covered glass and cultured in a cell culture medium to isolate human pulp cells.” for “dishes.”
# To compare the amount of mineralized matrix, the samples were fixed overnight at 4° C. with 4% paraformaldehyde (PFA), then treated with 40 mM alizarin red S (pH 4.2) at 25° C. for 30 minutes. After that, 0.5 mL of sodium dodecyl sulfate dissolved in 0.5 N hydrochloric acid was applied, and the samples were placed on a shaker for 30 minutes, and the absorbance was measured at 405 nm.
substance,measurement,setting,value
lipopolysaccharide [LPS],"expression of inflammatory factors TNF-α, IL-1α, IL-1β, IL-6, CXCL10, iNOS, and COX2 (ratio to GAPDH)",[1],significantly increased
same,viability of dental pulp cells,[2],significant decrease
same,wound healing ability as a ratio to the control group,[3],about 50 % of the control group
same,size of the mineral nodules,"[4]; day 21, compared to control group",significantly decreased
same,amount of mineralized matrix,"[4]; days 7, 14, and 21, compared to control group",significantly decreased
